# Test results as given in US20230241064A1, “METHODS OF TREATMENT AND/OR PREVENTION OF MAJOR ADVERSE CARDIOVASCULAR EVENTS (MACE) WITH A COMBINATION OF A BET BROMODOMAIN INHIBITOR AND A DIPEPTIDYL PEPTIDASE 4 INHIBITOR” (Resverlogix Corp., priority 2020, published 2023).
# Legend:
# [1] = EXAMINE; cited from earlier work
# [2] = system: type 2 diabetes patients with low HDL cholesterol and a recent acute coronary syndrome (ACS); assay: BETonMACE post-hoc analysis: cumulative incidence of broadly defined MACE; type: in vivo, human; details: patients without DPP-4 inhibitor; vs placebo (non-treatment); FIG. 5
# [3] = system: type 2 diabetes patients with low HDL cholesterol and a recent acute coronary syndrome (ACS); assay: BETonMACE Phase 3 trial post-hoc analysis: cumulative incidence of narrowly defined MACE; type: in vivo, human
# Method: Patients (n=2425) with ACS in the preceding 7 to 90 days, with type 2 diabetes and low HDL cholesterol (≤40 mg/dl for men, ≤45 mg/dl for women), receiving intensive or maximum-tolerated therapy with atorvastatin or rosuvastatin, were assigned in double-blind fashion to receive apabetalone 100 mg orally twice daily or matching placebo. Baseline characteristics include female sex (25%), myocardial infarction as index ACS event (74%), coronary revascularization for index ACS (76%), treatment with dual anti-platelet therapy (87%) and renin-angiotensin system inhibitors (91%), median LDL cholesterol 65 mg per deciliter, and median HbA1c 7.3%. The primary efficacy measure is time to first occurrence of cardiovascular death, non-fatal myocardial infarction, or stroke. Assumptions include a primary event rate of 7% per annum in the placebo group and median follow-up of 1.5 years. Patients were followed until at least 250 primary endpoint events had occurred, providing 80% power to detect a 30% reduction in the primary endpoint with apabetalone.
# Those patients who received at least one dose of DPP-4 inhibitor treatment after the date of the first incidence of event were censored as non-MACE events and the date of last contact was used as the censoring date.
# The distributions of the endpoints within the apabetalone and placebo groups were compared using a two-sided log-rank test (LRT) with an alpha=0.05 level of significance. The cumulative incidence is shown as 1-KM (Kaplan-Meier) estimate for event rate.
# [4] = system: type 2 diabetes patients with low HDL cholesterol and a recent acute coronary syndrome (ACS); assay: BETonMACE post-hoc analysis: cumulative incidence of hospitalization for congestive heart failure; type: in vivo, human; details: patients without DPP-4 inhibitor, vs placebo (non-treatment)
# [5] = system: type 2 diabetes patients with low HDL cholesterol and a recent acute coronary syndrome (ACS); assay: BETonMACE post-hoc analysis: cumulative incidence of cardiovascular death; type: in vivo, human; details: patients without DPP-4 inhibitor; vs placebo (non-treatment); FIG. 11
# Method: (§1) Apabetalone (RVX-208) was evaluated in a recently completed clinical Phase 3 trial (BETonMACE; NCT02586155) for the effect on MACE in type 2 diabetes patients with low HDL cholesterol (below 40 mg/dL for males and below 45 mg/dL for females) and a recent acute coronary syndrome (ACS). All patients received high intensity statin treatment, which was 20-40 mg daily or a maximum daily dose of 40 mg for rosuvastatin or 40-80 mg daily or a maximum daily dose of 80 mg for atorvastatin.
# (§2) Patients (n=2425) with ACS in the preceding 7 to 90 days, with type 2 diabetes and low HDL cholesterol (≤40 mg/dl for men, ≤45 mg/dl for women), receiving intensive or maximum-tolerated therapy with atorvastatin or rosuvastatin, were assigned in double-blind fashion to receive apabetalone 100 mg orally twice daily or matching placebo. Baseline characteristics include female sex (25%), myocardial infarction as index ACS event (74%), coronary revascularization for index ACS (76%), treatment with dual anti-platelet therapy (87%) and renin-angiotensin system inhibitors (91%), median LDL cholesterol 65 mg per deciliter, and median HbA1c 7.3%. The primary efficacy measure is time to first occurrence of cardiovascular death, non-fatal myocardial infarction, or stroke. Assumptions include a primary event rate of 7% per annum in the placebo group and median follow-up of 1.5 years. […]
# [6] = system: type 2 diabetes patients with low HDL cholesterol and a recent acute coronary syndrome (ACS); assay: BETonMACE post-hoc analysis: cumulative incidence of non-fatal myocardial infarction; type: in vivo, human; details: patients without DPP-4 inhibitor; vs placebo (non-treatment); FIG. 8
# Method: as §1, §2
# [7] = vs placebo; TECOS trial; cited from earlier work
compound,measurement,setting,value
Cn1c(=O)cc(N2CCC[C@@H](N)C2)n(Cc2ccccc2C#N)c1=O [alogliptin],"effect on the 3-point MACE composite outcome of cardiovascular death, myocardial infarction, or ischemic stroke",[1],neutral effect
"COc1cc(OC)c2c(=O)[nH]c(-c3cc(C)c(OCCO)c(C)c3)nc2c1 [apabetalone, 2-(4-(2-hydroxyethoxy)-3,5-dimethylphenyl)-5,7-dimethoxyquinazolin-4(3H)-one]","Hazard Ratio, broadly defined MACE",[2],1.00
same,"number of primary end points (narrowly defined MACE: cardiovascular death, non-fatal myocardial infarction, or stroke)","[3]; apabetalone 100 mg orally twice daily, on statin, per treatment group",114
same,"Kaplan-Meier estimated event rate, narrowly defined MACE",[3]; at 18 months,8.0%
same,"Hazard Ratio, narrowly defined MACE","[3]; patients without DPP-4 inhibitor, vs placebo (non-treatment), FIG. 2",0.99
same,primary end points (narrowly defined MACE) as percent of group,[3]; per treatment group,10.9%
same,reduction of number of patients having a hospitalization for congestive heart failure event at any given time,[4],27%
same,"Hazard Ratio, hospitalization for congestive heart failure",[4]; FIG. 14,0.73
same,"Hazard Ratio, cardiovascular death",[5],0.97
same,"Hazard Ratio, non-fatal myocardial infarction",[6],0.99
N[C@@H](CC(=O)N1CCn2c(nnc2C(F)(F)F)C1)Cc1cc(F)c(F)cc1F [sitagliptin],"hazard ratio (HR), 3-point MACE composite outcome",[7],0.99
same,"hazard ratio (HR), 4-point MACE composite outcome",[7],0.98
